pIC50: −log10 of the molar value.
What was measured:
[1] = test system: KYSE-150 esophageal carcinoma cell line; assay: In vitro cell-based assay: BrdU incorporation cell proliferation ELISA; parameters: species or system human; settings: Homo sapiens, KYSE-150 cells, 168 hours compound incubation, read-out: Cellular IC50
Procedure, shortened: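 KYSE-150 cells (SMAD4 mut, TP53 mut) seeded at 2,000 cells/well, treated next day with 11-point dilutions (100 μM to 2 nM final) for 168 h. Proliferation read by 2 h BrdU labelling and colorimetric anti-BrdU ELISA at 450 nm; IC50 from curve fit.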

JMJD2C = JMJD2C (Homo sapiens (Human), UniProt Q9H3R0); assay: JMJD2C in vitro enzyme inhibition assay (TR-FRET); format: biochemical; settings: 0.3 nM JMJD2C, 300 nM H3K9me3-biotin peptide, 2 μM alpha-ketoglutaric acid, 30 minutes
Chain of JMJD2C (Q9H3R0 2-372): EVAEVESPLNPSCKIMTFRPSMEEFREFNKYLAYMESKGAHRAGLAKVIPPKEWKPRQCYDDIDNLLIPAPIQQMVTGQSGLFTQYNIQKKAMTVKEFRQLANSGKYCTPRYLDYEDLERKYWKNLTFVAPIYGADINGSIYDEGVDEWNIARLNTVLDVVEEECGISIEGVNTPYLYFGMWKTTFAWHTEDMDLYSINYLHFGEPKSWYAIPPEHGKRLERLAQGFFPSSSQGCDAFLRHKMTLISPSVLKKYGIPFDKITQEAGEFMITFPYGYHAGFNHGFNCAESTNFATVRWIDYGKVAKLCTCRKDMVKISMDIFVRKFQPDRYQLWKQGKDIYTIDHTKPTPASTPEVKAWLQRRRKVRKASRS
Procedure, shortened: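 Baculovirus-expressed JMJD2C (aa 2-372), 0.3 nM, with 300 nM biotin-H3K9me3 peptide and 2 μM alpha-ketoglutarate in HEPES pH 7.3 with ascorbate and Fe(II), 30 min at room temperature, 11-point inhibitor series. H3K9me2 product detected by TR-FRET (Eu-antibody/streptavidin-APC, 665/615 ratio); IC50 fitted.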

SMILES	pIC50 [1]	pIC50 (JMJD2C)
CN(c1ccc(Oc2nc(O)c3ccncc3n2)cc1)c1ccc(C2CCOCC2)cc1 [Example 99, 2-[4-[N-methyl-4-(oxan-4-yl)anilino]phenoxy]pyrido[3,4-d]pyrimidin-4-ol]	≥ 7.00	6.00 to 7.00
CN(c1ccc(Cl)cc1)c1ccc(Oc2nc(O)c3ccncc3n2)cc1 [Example 94, 2-[4-(4-chloro-N-methylanilino)phenoxy]pyrido[3,4-d]pyrimidin-4-ol]	6.00 to 7.00	6.00 to 7.00
CCc1ccc(N(C)c2ccc(Oc3nc(O)c4ccncc4n3)cc2)cc1N1CCN(C)CC1 [Example 60, 2-[4-[4-ethyl-N-methyl-3-(4-methylpiperazin-1-yl)anilino]phenoxy]pyrido[3,4-d]pyrimidin-4-ol]	< 5.00	≥ 7.00
CNCCC(C)c1ccc(N(C)c2ccc(Oc3nc(O)c4ccncc4n3)cc2)cc1 (stereo not drawn) [Example 72, 2-[4-[N-methyl-4-[4-(methylamino)butan-2-yl]anilino]phenoxy]pyrido[3,4-d]pyrimidin-4-ol]	< 5.00	≥ 7.00
CN(C(=O)Cc1ccccc1)c1ccc(Oc2nc(O)c3ccncc3n2)cc1 [Example 24, N-[4-(4-hydroxy-pyrido[3,4-d]pyrimidin-2-yloxy)-phenyl]-N-methyl-2-phenyl-acetamide]	< 5.00	6.00 to 7.00
Oc1nc(Oc2ccc3c(ccn3Cc3ccccc3)c2)nc2cnccc12 [Example 4, 2-(1-Benzyl-1H-indol-5-yloxy)-pyrido[3,4-d]pyrimidin-4-ol]	6.00 to 7.00	6.00 to 7.00
CN1CCN(c2cccc(N(C)c3ccc(Oc4nc(O)c5ccncc5n4)cc3)c2)CC1 [Example 79, 2-[4-[N-methyl-3-(4-methylpiperazin-1-yl)anilino]phenoxy]pyrido[3,4-d]pyrimidin-4-ol]	≥ 7.00	≥ 7.00
CN1CCN(c2cccc(N(C)c3ccc(Oc4nc(O)c5ccncc5n4)cc3)c2)CC1=O [Example 45, 4-[3-[4-(4-hydroxypyrido[3,4-d]pyrimidin-2-yl)oxy-N-methylanilino]phenyl]-1-methylpiperazin-2-one]	< 5.00	6.00 to 7.00
CC(CN)c1ccc(N(C)c2ccc(Oc3nc(O)c4ccncc4n3)cc2)cc1 (stereo not drawn) [Example 37, 2-(4-{[4-(2-amino-1-methyl-ethyl)-phenyl]-methyl-amino}-phenoxy)-pyrido[3,4-d]pyrimidin-4-ol]	< 5.00	≥ 7.00

Further lines, results first:

pIC50 [1]	pIC50 (JMJD2C)	SMILES
6.00 to 7.00	5.00 to 6.00	CN(c1ccc(OCC2CC2)cc1)c1ccc(Oc2nc(O)c3ccncc3n2)cc1 [Example 101, 2-[4-[4-(cyclopropylmethoxy)-N-methylanilino]phenoxy]pyrido[3,4-d]pyrimidin-4-ol]
< 5.00	5.00 to 6.00	CN(c1ccc(Oc2nc(O)c3ccncc3n2)cc1)c1ccc(C2=CCOCC2)cc1 [Example 98, 2-[4-[4-(3,6-dihydro-2H-pyran-4-yl)-N-methylanilino]phenoxy]pyrido[3,4-d]pyrimidin-4-ol]
6.00 to 7.00	6.00 to 7.00	CC(C)Oc1ccc(N(C)c2ccc(Oc3nc(O)c4ccncc4n3)cc2)cc1 [Example 111, 2-[4-(N-methyl-4-propan-2-yloxyanilino)phenoxy]pyrido[3,4-d]pyrimidin-4-ol]
≥ 7.00	6.00 to 7.00	CCc1ccc(N(C)c2ccc(Oc3nc(O)c4ccncc4n3)cc2)cc1 [Example 84, 2-[4-(4-ethyl-N-methylanilino)phenoxy]pyrido[3,4-d]pyrimidin-4-ol]
5.00 to 6.00	≥ 7.00	Cc1ccc(N(C)c2ccc(Oc3nc(O)c4ccncc4n3)cc2)cc1N1CCN(C)CC1 [Example 105, 2-[4-[N,4-dimethyl-3-(4-methylpiperazin-1-yl)anilino]phenoxy]pyrido[3,4-d]pyrimidin-4-ol]
≥ 7.00	5.00 to 6.00	COCC(C)(C)c1ccc(N(C)c2ccc(Oc3nc(O)c4ccncc4n3)cc2)cc1 [Example 67, 2-[4-[4-(1-methoxy-2-methylpropan-2-yl)-N-methylanilino]phenoxy]pyrido[3,4-d]pyrimidin-4-ol]

Reference: patent publication US10112940B2, “Histone demethylase inhibitors” (Celgene Quanticel Research, Inc., priority 2014, dated 2018)
